Laboratory results published in patent US8546565B2, “Quinazolinamide derivatives” (Merck Patent Gesellschaft, priority 2008, dated 2013).

Target: T1, Recombinant human HSP90a (Homo sapiens, UniProt P07900)
T1 construct: host or cells: E. coli
Test: HSP90 radioligand filter binding test ([3H]17AAG competition)
Settings: [3H]17AAG 0.08 μM, HSP90 1.5 μg/assay, 22° C., 30 min; read-out: IC50 (HSP90 inhibition)

IC50, 10 to 1000 nM:
CCN(CC)C(=O)c1cc(F)c(F)cc1-c1ccc2nc(N)nc(C(=O)N3Cc4ccccc4C3)c2c1 [Compound A69, 2-[2-Amino-4-(1,3-dihydroisoindole-2-carbonyl)quinazolin-6-yl]-N,N-diethyl-4,5-difluorobenzamide]
CCN(CC)C(=O)c1ccc(F)cc1-c1ccc2nc(N)nc(C(=O)N3Cc4ccccc4C3)c2c1 [Compound A70]
CCN(CC)C(=O)c1cc(F)ccc1-c1ccc2nc(N)nc(C(=O)N3Cc4ccccc4C3)c2c1 [Compound A71, 2-[2-Amino-4-(1,3-dihydroisoindole-2-carbonyl)quinazolin-6-yl]-N,N-diethyl-5-fluorobenzamide]
C[C@H]1CCCN1C(=O)c1ccccc1-c1ccc2nc(N)nc(C(=O)N3Cc4ccccc4C3)c2c1 [Compound A72, {2-Amino-6-[2-((S)-2-methylpyrrolidine-1-carbonyl)phenyl]quinazolin-4-yl}-(1,3-dihydroisoindol-2-yl)methanone]
Nc1nc(C(=O)N2Cc3ccccc3C2)c2cc(-c3ccccc3C(=O)N(CCO)CCO)ccc2n1 [Compound A73]
CCNC(=O)c1cc(F)c(F)cc1-c1ccc2nc(N)nc(C(=O)N3Cc4ccccc4C3)c2c1 [Compound A74, 2-[2-Amino-4-(1,3-dihydroisoindole-2-carbonyl)quinazolin-6-yl]-N-ethyl-4,5-difluorobenzamide]
CCN(CCO)C(=O)c1cc(F)c(F)cc1-c1ccc2nc(N)nc(C(=O)N3Cc4ccccc4C3)c2c1 [Compound A75, 2-[2-Amino-4-(1,3-dihydroisoindole-2-carbonyl)quinazolin-6-yl]-N-ethyl-4,5-difluoro-N-(2-hydroxyethyl)benzamide]
CCN(CCN(C)C)C(=O)c1cc(F)c(F)cc1-c1ccc2nc(N)nc(C(=O)N3Cc4ccccc4C3)c2c1 [Compound A76, 2-[2-Amino-4-(1,3-dihydroisoindole-2-carbonyl)quinazolin-6-yl]-N-(2-dimethylaminoethyl)-N-ethyl-4,5-difluorobenzamide]
CCN(C)C(=O)c1cc(F)c(F)cc1-c1ccc2nc(N)nc(C(=O)N3Cc4ccccc4C3)c2c1 [Compound A77, 2-[2-Amino-4-(1,3-dihydroisoindole-2-carbonyl)quinazolin-6-yl]-N-ethyl-4,5-difluoro-N-methylbenzamide]
Nc1nc(C(=O)N2Cc3ccccc3C2)c2cc(-c3cc(F)c(F)cc3C(=O)N3CCCC3)ccc2n1 [Compound A78, {2-Amino-6-[4,5-difluoro-2-(pyrrolidine-1-carbonyl)phenyl]quinazolin-4-yl}-(1,3-dihydroisoindol-2-yl)methanone]
CC1CCCN1C(=O)c1cc(F)c(F)cc1-c1ccc2nc(N)nc(C(=O)N3Cc4ccccc4C3)c2c1 (centres unmarked) [Compound A79, {2-Amino-6-[4,5-difluoro-2-(2-methylpyrrolidine-1-carbonyl)phenyl]quinazolin-4-yl}-(1,3-dihydroisoindol-2-yl)methanone]
Nc1nc(C(=O)N2Cc3ccccc3C2)c2cc(-c3cc(F)c(F)cc3C(=O)N3CCC3)ccc2n1 [Compound A80, {2-Amino-6-[2-(azetidine-1-carbonyl)-4,5-difluorophenyl]quinazolin-4-yl}-(1,3-dihydroisoindol-2-yl)methanone]
CC(C)(C)NC(=O)c1cc(F)c(F)cc1-c1ccc2nc(N)nc(C(=O)N3Cc4ccccc4C3)c2c1 [Compound A81, 2-[2-Amino-4-(1,3-dihydroisoindole-2-carbonyl)quinazolin-6-yl]-N-tert-butyl-4,5-difluorobenzamide]
CCN(CCO)S(=O)(=O)c1ccc(F)cc1-c1ccc2nc(N)nc(C(=O)N3Cc4ccccc4C3)c2c1 [Compound A82]
